3 compounds from the NIST ThermoML archive (doi:10.1016/j.jct.2005.12.003) can be followed below.

± gives the expanded uncertainty stated by the source.

A short description of data set [1]: refractive index (Na D-line) (dimensionless). As to conditions: 298.15 K; 101.33 kPa; Liquid; Standard Abbe refractometry.
For data set [2] the following is noted: Liquid; for mass density: 298.15 K, 101.33 kPa; for vapor or sublimation pressure: refractive and density measurements.

As for `c1ccccc1` [benzene], the refractive index (commonly a measure of how strongly the sample bends light) in data set [1] is 1.49692 ± 0.00072. In addition, the mass density (commonly mass per unit of volume) in data set [2] was determined as 873.6 ± 0.2 kg/m3. Moreover, the vapor or sublimation pressure – broadly, the equilibrium pressure above the liquid or solid – in data set [2] (353.25 K) was found to be 101.3 kPa.
On to `Clc1ccccc1` [chlorobenzene], for which the refractive index in data set [1] is 1.52176 ± 0.00075. Further, the mass density in data set [2] stood at 1100.8 ± 0.5 kg/m3. Also, the “vapor or sublimation pressure” value in data set [2] (404.82 K) is listed as 101.3 kPa.
For `C1CCCCC1` [cyclohexane], in data set [1], the refractive index is 1.4232 ± 0.00072. For the same compound, the mass density in data set [2] was 773.7 ± 0.3 kg/m3. Moreover, the “vapor or sublimation pressure” value in data set [2] (353.89 K) was 101.3 kPa.
